Where two headings read alike, the source gives them in different places.
Experiments:
[1] = molecular target: c-Kit (Homo sapiens (Human), UniProt P10721); experiment: Inhibition of c-Kit kinase activity (HTRF KinEASE-TK); type: biochemical
Method in brief: (§1)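 Human kinases were preincubated 1 h at rt with a 22-point 1:2 compound titration, then run 120 min at rt with biotinylated TK peptide and ATP (2× mix: c-Kit 16 μM, PDGFRα 1 μM, PDGFRβ 40 μM, CSF1R 20 μM). Phosphopeptide was read by HTRF TR-FRET (665/620 nm), and IC50s came from 4-parameter fits.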

[2] = molecular target: PDGFRβ (Homo sapiens (Human), UniProt P09619); experiment: Inhibition of PDGFRβ kinase activity (HTRF KinEASE-TK); conditions: biochemical
PDGFRβ, sequence (P09619 33-1106): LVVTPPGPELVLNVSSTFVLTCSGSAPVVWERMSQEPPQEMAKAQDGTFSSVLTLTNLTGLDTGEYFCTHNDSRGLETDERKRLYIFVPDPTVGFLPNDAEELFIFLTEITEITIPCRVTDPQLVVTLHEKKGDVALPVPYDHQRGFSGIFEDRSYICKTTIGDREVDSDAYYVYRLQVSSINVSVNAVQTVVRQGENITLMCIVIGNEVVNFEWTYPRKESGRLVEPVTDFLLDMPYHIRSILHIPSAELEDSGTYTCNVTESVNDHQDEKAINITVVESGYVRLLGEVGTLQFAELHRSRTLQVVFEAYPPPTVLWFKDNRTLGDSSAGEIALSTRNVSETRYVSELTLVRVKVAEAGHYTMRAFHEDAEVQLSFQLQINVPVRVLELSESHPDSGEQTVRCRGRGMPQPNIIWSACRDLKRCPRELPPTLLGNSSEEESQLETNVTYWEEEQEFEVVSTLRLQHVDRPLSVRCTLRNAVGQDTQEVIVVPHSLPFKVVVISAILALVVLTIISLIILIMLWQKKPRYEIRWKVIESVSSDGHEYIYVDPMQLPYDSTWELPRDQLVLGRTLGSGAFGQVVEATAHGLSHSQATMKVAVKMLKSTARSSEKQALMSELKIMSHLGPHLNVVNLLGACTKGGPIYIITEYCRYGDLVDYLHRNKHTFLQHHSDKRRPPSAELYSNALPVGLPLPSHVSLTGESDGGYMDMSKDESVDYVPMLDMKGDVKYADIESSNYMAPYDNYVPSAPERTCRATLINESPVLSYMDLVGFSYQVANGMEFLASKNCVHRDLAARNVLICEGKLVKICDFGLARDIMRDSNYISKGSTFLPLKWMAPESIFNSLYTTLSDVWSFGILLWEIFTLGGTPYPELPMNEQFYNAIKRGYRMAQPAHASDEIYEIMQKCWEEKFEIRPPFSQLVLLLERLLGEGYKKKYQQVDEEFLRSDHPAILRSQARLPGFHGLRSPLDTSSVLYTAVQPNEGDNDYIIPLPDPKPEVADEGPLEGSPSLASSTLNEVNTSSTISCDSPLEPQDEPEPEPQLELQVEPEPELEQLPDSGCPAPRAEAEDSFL
Method in brief: as §1

[3] = test system: Phospho-KIT (Y703) in M07e cells; experiment: Phospho-KIT (Y703) cellular assay in M07e cells; type: cell-based; conditions: M-07e
Method in brief: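 Serum-starved M07e cells preincubated 50 min at 37° C with 11-point half-log compound titration, then stimulated 10 min with SCF at 90.9 ng/mL final. Fixed, permeabilized cells stained for phospho-KIT Y703 and read by flow cytometry (live-gated geometric mean); IC50 by 4-parameter fit normalized to DMSO and positive control.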

[4] = molecular target: FLT3 (Homo sapiens (Human), UniProt P36888); experiment: Inhibition of FLT3 kinase activity (HTRF KinEASE-TK); type: biochemical
FLT3, sequence (P36888 27-993): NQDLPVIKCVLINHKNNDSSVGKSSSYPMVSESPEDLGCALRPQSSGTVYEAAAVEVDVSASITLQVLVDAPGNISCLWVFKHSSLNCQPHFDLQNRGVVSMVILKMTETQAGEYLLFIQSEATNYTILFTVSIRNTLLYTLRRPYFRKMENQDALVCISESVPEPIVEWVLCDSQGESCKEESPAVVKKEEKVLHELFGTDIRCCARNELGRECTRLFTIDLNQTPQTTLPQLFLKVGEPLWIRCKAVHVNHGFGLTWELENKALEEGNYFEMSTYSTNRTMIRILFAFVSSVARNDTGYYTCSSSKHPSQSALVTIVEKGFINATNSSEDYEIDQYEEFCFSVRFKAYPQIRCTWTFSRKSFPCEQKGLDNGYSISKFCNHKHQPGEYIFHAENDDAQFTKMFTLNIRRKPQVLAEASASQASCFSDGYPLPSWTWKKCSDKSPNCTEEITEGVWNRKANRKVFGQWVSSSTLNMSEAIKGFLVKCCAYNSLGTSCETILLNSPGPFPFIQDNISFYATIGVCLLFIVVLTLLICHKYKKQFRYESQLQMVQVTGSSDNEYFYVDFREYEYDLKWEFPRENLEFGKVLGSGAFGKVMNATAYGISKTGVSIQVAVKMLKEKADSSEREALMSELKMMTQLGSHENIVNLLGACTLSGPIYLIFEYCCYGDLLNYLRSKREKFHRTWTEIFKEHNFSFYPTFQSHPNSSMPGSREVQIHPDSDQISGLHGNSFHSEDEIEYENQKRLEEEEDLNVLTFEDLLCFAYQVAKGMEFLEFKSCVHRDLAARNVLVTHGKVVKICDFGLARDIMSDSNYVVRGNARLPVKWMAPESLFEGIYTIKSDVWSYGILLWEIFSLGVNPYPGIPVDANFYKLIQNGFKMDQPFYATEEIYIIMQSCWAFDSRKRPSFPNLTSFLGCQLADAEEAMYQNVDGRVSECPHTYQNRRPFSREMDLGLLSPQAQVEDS
Method in brief: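 FLT3 tyrosine kinase activity was measured with the HTRF KinEASE-TK kit by following phosphorylation of a biotinylated TK peptide. After the 45 min reaction, 10 μL of detection mix was added: 0.2 μM (2×) Streptavidin-XL665 and 2 μM (2×) TK-Antibody-Cryptate in detection buffer. After 60 min, TR-FRET was read on an Envision as the 665 nm/620 nm emission ratio with 320 nm excitation.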

[5] = molecular target: CSF1R (Homo sapiens (Human), UniProt P07333); experiment: Inhibition of CSF1R kinase activity (HTRF KinEASE-TK); conditions: biochemical
CSF1R, sequence (P07333 20-972): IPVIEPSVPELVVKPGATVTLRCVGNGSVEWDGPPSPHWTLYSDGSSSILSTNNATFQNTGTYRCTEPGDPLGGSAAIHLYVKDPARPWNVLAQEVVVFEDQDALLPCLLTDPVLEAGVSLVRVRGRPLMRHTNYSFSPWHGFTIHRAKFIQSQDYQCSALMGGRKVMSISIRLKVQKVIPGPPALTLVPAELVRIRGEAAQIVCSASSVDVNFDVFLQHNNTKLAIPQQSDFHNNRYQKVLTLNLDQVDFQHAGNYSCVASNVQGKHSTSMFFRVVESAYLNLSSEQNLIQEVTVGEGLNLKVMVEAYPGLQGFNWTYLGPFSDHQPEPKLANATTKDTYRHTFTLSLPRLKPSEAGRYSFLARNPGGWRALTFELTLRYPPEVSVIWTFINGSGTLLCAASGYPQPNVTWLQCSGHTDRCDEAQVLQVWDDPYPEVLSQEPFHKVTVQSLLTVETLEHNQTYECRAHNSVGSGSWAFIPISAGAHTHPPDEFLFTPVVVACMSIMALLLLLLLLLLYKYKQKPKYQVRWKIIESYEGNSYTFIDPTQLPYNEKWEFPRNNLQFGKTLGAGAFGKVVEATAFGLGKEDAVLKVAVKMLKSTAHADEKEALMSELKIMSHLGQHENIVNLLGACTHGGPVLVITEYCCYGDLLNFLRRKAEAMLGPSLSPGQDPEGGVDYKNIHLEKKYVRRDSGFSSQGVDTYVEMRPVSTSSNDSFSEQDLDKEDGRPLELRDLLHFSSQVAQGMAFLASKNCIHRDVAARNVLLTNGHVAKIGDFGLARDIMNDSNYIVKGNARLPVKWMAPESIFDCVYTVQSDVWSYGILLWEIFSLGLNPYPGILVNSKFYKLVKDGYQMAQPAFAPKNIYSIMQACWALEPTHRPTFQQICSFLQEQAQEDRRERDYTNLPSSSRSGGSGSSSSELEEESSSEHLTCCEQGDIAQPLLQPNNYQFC
Method in brief: as §1

[6] = molecular target: PDGFRα (Homo sapiens (Human), UniProt P16234); experiment: Inhibition of PDGFRα kinase activity (HTRF KinEASE-TK); conditions: biochemical
PDGFRα, sequence (P16234 24-1089): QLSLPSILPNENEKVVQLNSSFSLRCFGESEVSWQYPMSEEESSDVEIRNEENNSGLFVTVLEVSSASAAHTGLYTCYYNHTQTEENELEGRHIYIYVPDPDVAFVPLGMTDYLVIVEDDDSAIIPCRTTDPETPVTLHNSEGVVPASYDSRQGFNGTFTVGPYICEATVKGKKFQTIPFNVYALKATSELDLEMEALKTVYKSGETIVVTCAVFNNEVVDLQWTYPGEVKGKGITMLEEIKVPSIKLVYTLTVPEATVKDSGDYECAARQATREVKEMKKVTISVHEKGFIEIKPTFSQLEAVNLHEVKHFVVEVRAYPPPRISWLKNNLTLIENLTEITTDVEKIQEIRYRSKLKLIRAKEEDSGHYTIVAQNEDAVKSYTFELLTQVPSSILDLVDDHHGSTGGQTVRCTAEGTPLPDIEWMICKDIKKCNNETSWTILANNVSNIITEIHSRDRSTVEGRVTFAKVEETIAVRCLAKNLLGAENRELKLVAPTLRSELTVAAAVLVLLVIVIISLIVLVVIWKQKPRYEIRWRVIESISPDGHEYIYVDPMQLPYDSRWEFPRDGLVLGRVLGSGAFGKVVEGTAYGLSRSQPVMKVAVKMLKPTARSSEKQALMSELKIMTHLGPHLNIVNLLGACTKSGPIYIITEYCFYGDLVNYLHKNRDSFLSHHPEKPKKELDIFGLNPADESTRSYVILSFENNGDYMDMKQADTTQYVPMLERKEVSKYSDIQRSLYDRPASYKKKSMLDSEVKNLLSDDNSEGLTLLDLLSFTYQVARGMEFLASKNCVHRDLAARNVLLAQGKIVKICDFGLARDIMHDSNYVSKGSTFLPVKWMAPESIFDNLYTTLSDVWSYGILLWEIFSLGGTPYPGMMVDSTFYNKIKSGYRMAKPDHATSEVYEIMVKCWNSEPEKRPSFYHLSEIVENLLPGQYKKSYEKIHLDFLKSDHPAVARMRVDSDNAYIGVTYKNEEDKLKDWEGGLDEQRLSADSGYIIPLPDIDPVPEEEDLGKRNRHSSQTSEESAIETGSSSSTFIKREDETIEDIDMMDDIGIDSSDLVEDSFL
Method in brief: as §1

[7] = Phospho-KIT (Y703), M07e cells, read-out: M07e Cell IC50
[8] = phospho-KIT (Y703), SCF-stimulated M07e cells, read-out: M07e Cell IC50

c-Kit, sequence (P10721 26-976): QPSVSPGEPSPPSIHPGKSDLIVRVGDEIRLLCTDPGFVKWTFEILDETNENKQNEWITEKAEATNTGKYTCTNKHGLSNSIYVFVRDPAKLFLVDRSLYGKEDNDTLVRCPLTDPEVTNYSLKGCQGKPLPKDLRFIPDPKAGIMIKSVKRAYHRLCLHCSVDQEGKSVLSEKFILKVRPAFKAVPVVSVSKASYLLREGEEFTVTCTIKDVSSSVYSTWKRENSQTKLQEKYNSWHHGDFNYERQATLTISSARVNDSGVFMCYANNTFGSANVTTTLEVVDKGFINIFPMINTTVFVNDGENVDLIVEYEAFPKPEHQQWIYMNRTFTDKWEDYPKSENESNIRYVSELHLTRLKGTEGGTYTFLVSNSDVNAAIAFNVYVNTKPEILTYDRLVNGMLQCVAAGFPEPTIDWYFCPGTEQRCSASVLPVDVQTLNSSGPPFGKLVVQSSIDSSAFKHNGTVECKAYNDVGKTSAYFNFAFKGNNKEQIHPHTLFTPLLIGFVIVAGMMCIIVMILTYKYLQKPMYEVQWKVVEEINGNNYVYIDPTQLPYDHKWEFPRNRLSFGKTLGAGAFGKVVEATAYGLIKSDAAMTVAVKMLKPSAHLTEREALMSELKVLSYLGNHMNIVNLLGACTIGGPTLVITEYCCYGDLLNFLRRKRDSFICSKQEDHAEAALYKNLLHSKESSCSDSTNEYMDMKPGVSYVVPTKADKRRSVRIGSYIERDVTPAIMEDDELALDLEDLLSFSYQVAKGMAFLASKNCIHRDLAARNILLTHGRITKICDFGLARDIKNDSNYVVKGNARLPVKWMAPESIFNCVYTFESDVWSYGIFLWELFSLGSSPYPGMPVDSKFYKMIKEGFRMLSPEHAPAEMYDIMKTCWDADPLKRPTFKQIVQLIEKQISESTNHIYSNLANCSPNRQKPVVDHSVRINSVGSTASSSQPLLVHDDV

Compound	IC50 ([1]; biochemical, HTRF KinEASE-TK)	IC50 ([2]; HTRF KinEASE-TK)	IC50 [3, 7]	IC50 ([4]; biochemical, HTRF KinEASE-TK)	IC50 ([5]; HTRF KinEASE-TK)	IC50 ([6]; HTRF KinEASE-TK)	IC50 ([1]; biochemical)	IC50 [2]	IC50 [3, 8]	IC50 ([4]; biochemical)	IC50 [5]	IC50 [6]	IC50 ([3]; M07e cells, read-out: Phospho-KIT (Y703) cellular IC50)	IC50 ([3]; read-out: M07e Cell IC50)	IC50 [1]	IC50 [4]
Cc1cc(F)c(C(=O)Nc2ccc(O[C@H]3CCOC3)cn2)cc1NC(=O)c1cnc(N)s1 [Example 117, 2-Amino-N-[4-fluoro-2-methyl-5-[[5-[(3S)-oxolan-3-yl]oxypyridin-2-yl]carbamoyl]phenyl]-1,3-thiazole-5-carboxamide]	< 0.1 µM	> 1 µM	< 0.1 µM	> 1 µM	> 1 µM	> 1 µM	–	–	–	–	–	–	–	–	–	–
Cc1cc(F)c(C(=O)Nc2ccn(C3CC3)n2)cc1NC(=O)c1cnc(N)s1 [Example 159, 2-Amino-N-[5-[(1-cyclopropylpyrazol-3-yl)carbamoyl]-4-fluoro-2-methylphenyl]-1,3-thiazole-5-carboxamide]	< 0.1 µM	> 1 µM	< 0.1 µM	> 1 µM	> 1 µM	> 1 µM	–	–	–	–	–	–	–	–	–	–
Cc1cc(F)c(C(=O)Nc2ccc(OC3CCC3)cn2)cc1NC(=O)c1cnc(N)s1 [Example 134, 2-Amino-N-[5-[(5-cyclobutyloxypyridin-2-yl)carbamoyl]-4-fluoro-2-methylphenyl]-1,3-thiazole-5-carboxamide]	< 0.1 µM	< 0.1 µM	< 0.1 µM	> 1 µM	0.1 to 1 µM	0.1 to 1 µM	–	–	–	–	–	–	–	–	–	–
Nc1ncc(C(=O)Nc2cc(C(=O)Nc3cnc(C4CC4)cn3)c(F)cc2Cl)s1 [Example 205, 2-Amino-N-[2-chloro-5-[(5-cyclopropylpyrazin-2-yl)carbamoyl]-4-fluorophenyl]-1,3-thiazole-5-carboxamide]	< 0.1 µM	< 0.1 µM	< 0.1 µM	> 1 µM	< 0.1 µM	0.1 to 1 µM	–	–	–	–	–	–	–	–	–	–
Nc1ncc(C(=O)Nc2cc(C(=O)Nc3ncc(C4CC4)cn3)c(F)cc2Cl)s1 [Example 203, 2-Amino-N-[2-chloro-5-[(5-cyclopropylpyrimidin-2-yl)carbamoyl]-4-fluorophenyl]-1,3-thiazole-5-carboxamide]	< 0.1 µM	0.1 to 1 µM	< 0.1 µM	> 1 µM	0.1 to 1 µM	> 1 µM	–	–	–	–	–	–	–	–	–	–
Cc1ncc(C(=O)Nc2cc(C(=O)Nc3cnc(N4CCC[C@@H]4C(F)(F)F)cn3)c(F)cc2C)s1 [Example 96, N-[4-fluoro-2-methyl-5-[[5-[(2R)-2-(trifluoromethyl)pyrrolidin-1-yl]pyrazin-2-yl]carbamoyl]phenyl]-2-methyl-1,3-thiazole-5-carboxamide]	< 0.1 µM	> 1 µM	< 0.1 µM	> 1 µM	> 1 µM	> 1 µM	–	–	–	–	–	–	–	–	–	–
Cc1ncc(C(=O)Nc2cc(C(=O)N[C@@H]3C[C@H]3c3ccccc3)c(F)cc2C)s1 [Example 31, N-[4-Fluoro-2-methyl-5-[[(1R,2S)-2-phenylcyclopropyl]carbamoyl]phenyl]-2-methyl-1,3-thiazole-5-carboxamide]	< 0.1 µM	> 1 µM	< 0.1 µM	> 1 µM	> 1 µM	> 1 µM	–	–	–	–	–	–	–	–	–	–
Cc1ncc(C(=O)Nc2cc(C(=O)Nc3ccc(CC(F)F)cn3)c(F)cc2C)s1 [Example 45, N-[5-[[5-(2,2-difluoroethyl)pyridin-2-yl]carbamoyl]-4-fluoro-2-methylphenyl]-2-methyl-1,3-thiazole-5-carboxamide]	< 0.1 µM	> 1 µM	–	> 1 µM	> 1 µM	> 1 µM	–	–	–	–	–	–	–	< 0.1 µM	–	–
Cc1cc(F)c(C(=O)Nc2ccn([C@@H]3CCOC3)n2)cc1NC(=O)c1cnc(N)s1 [Example 149, 2-Amino-N-[4-fluoro-2-methyl-5-[[1-[(3R)-oxolan-3-yl]pyrazol-3-yl]carbamoyl]phenyl]-1,3-thiazole-5-carboxamide]	< 0.1 µM	0.1 to 1 µM	< 0.1 µM	> 1 µM	> 1 µM	> 1 µM	–	–	–	–	–	–	–	–	–	–
Cc1cc(F)c(C(=O)N[C@H]2CCOC2)cc1NC(=O)c1cnc(NC(=O)N2CCC2)s1 [Example 102, 2-(Azetidine-1-carbonylamino)-N-[4-fluoro-2-methyl-5-[[(3S)-oxolan-3-yl]carbamoyl]phenyl]-1,3-thiazole-5-carboxamide]	< 0.1 µM	> 1 µM	0.1 to 1 µM	> 1 µM	0.1 to 1 µM	> 1 µM	–	–	–	–	–	–	–	–	–	–
Cc1cc(F)c(C(=O)Nc2ccc(OC3CC3)c(C)n2)cc1NC(=O)c1cnc(N)s1 [Example 152, 2-Amino-N-[5-[(5-cyclopropyloxy-6-methylpyridin-2-yl)carbamoyl]-4-fluoro-2-methylphenyl]-1,3-thiazole-5-carboxamide]	< 0.1 µM	0.1 to 1 µM	< 0.1 µM	> 1 µM	> 1 µM	0.1 to 1 µM	–	–	–	–	–	–	–	–	–	–
Cc1cc(F)c(C(=O)Nc2ccc(OC(C)C)nn2)cc1NC(=O)c1cnc(N)s1 [Example 259, 2-Amino-N-[4-fluoro-2-methyl-5-[(6-propan-2-yloxypyridazin-3-yl)carbamoyl]phenyl]-1,3-thiazole-5-carboxamide]	< 0.1 µM	< 0.1 µM	–	> 1 µM	0.1 to 1 µM	0.1 to 1 µM	–	–	–	–	–	–	< 0.1 µM	–	–	–
Cc1cc(F)c(C(=O)Nc2ccc(OC(C)C)cn2)cc1NC(=O)c1cnc(N)s1 [Example 140, 2-Amino-N-[4-fluoro-2-methyl-5-[(5-propan-2-yloxypyridin-2-yl)carbamoyl]phenyl]-1,3-thiazole-5-carboxamide]	–	0.1 to 1 µM	–	–	0.1 to 1 µM	0.1 to 1 µM	–	–	–	–	–	–	–	< 0.1 µM	< 0.1 µM	> 1 µM

Continued, in another order:

IC50 ([1]; biochemical, HTRF KinEASE-TK)	IC50 ([2]; HTRF KinEASE-TK)	IC50 [3, 7]	IC50 ([4]; biochemical, HTRF KinEASE-TK)	IC50 ([5]; HTRF KinEASE-TK)	IC50 ([6]; HTRF KinEASE-TK)	IC50 ([1]; biochemical)	IC50 [2]	IC50 [3, 8]	IC50 ([4]; biochemical)	IC50 [5]	IC50 [6]	IC50 ([3]; M07e cells, read-out: Phospho-KIT (Y703) cellular IC50)	Compound	IC50 ([3]; read-out: M07e Cell IC50)	IC50 [1]	IC50 [4]
< 0.1 µM	> 1 µM	< 0.1 µM	0.1 to 1 µM	> 1 µM	> 1 µM	–	–	–	–	–	–	–	Cc1cc(F)c(C(=O)Nc2ccc(COC(C)C)cn2)cc1NC(=O)c1cnc(N)s1 [Example 195, 2-Amino-N-[4-fluoro-2-methyl-5-[[5-(propan-2-yloxymethyl)pyridin-2-yl]carbamoyl]phenyl]-1,3-thiazole-5-carboxamide]	–	–	–
< 0.1 µM	0.1 to 1 µM	< 0.1 µM	> 1 µM	0.1 to 1 µM	> 1 µM	–	–	–	–	–	–	–	Cc1cc(F)c(C(=O)Nc2ccc(C(F)F)cn2)cc1NC(=O)c1cnc(N)s1 [Example 226, 2-Amino-N-[5-[[5-(difluoromethyl)pyridin-2-yl]carbamoyl]-4-fluoro-2-methylphenyl]-1,3-thiazole-5-carboxamide]	–	–	–
0.1 to 1 µM	> 1 µM	> 1 µM	> 1 µM	> 1 µM	> 1 µM	–	–	–	–	–	–	–	COCc1ccc(NC(=O)c2cc(NC(=O)c3cnc(N)s3)c(F)cc2F)nc1 [Example 215, 2-Amino-N-[2,4-difluoro-5-[[5-(methoxymethyl)pyridin-2-yl]carbamoyl]phenyl]-1,3-thiazole-5-carboxamide]	–	–	–
–	–	–	–	–	–	< 0.1 µM	< 0.1 µM	< 0.1 µM	> 1 µM	0.1 to 1 µM	0.1 to 1 µM	–	Cc1cc(F)c(C(=O)Nc2ccc(CC(F)(F)F)cn2)cc1NC(=O)c1cnc(N)s1 [Example 11, 2-Amino-N-[4-fluoro-2-methyl-5-[[5-(2,2,2-trifluoroethyl)pyridin-2-yl]carbamoyl]phenyl]-1,3-thiazole-5-carboxamide]	–	–	–
< 0.1 µM	> 1 µM	< 0.1 µM	> 1 µM	> 1 µM	> 1 µM	–	–	–	–	–	–	–	Nc1ncc(C(=O)Nc2cc(C(=O)Nc3ccc(OCC(F)(F)F)cn3)c(F)cc2F)s1 [Example 220, 2-Amino-N-[2,4-difluoro-5-[[5-(2,2,2-trifluoroethoxy)pyridin-2-yl]carbamoyl]phenyl]-1,3-thiazole-5-carboxamide]	–	–	–
< 0.1 µM	> 1 µM	< 0.1 µM	> 1 µM	> 1 µM	> 1 µM	–	–	–	–	–	–	–	COc1ccc(NC(=O)c2cc(NC(=O)c3cnc(N)s3)c(C)cc2F)nc1 [Example 131, 2-Amino-N-[4-fluoro-5-[(5-methoxypyridin-2-yl)carbamoyl]-2-methylphenyl]-1,3-thiazole-5-carboxamide]	–	–	–
–	–	–	–	–	–	< 0.1 µM	> 1 µM	< 0.1 µM	> 1 µM	> 1 µM	> 1 µM	–	COCc1ccc(NC(=O)c2cc(NC(=O)c3cnc(N)s3)c(C)cc2F)nc1 [Example 10, 2-Amino-N-[4-fluoro-5-[[5-(methoxymethyl)pyridin-2-yl]carbamoyl]-2-methylphenyl]-1,3-thiazole-5-carboxamide]	–	–	–

— US20250145606A1 (Arcus Biosciences, Inc., priority 2023, published 2025)
